Data set [1] is described as follows: Qualitative sample analysis (Q1 test) of released drug by LCMS. The following applies: drug released from the device; chromatograms, FIGS. 7 and 8. It is filed as physicochemical. The procedure: Qualitative sample analysis (or Q1 test) was performed on select samples to assure single spikes were detected at frequencies consistent with calibration curves and that no secondary spikes were detected (indicating LCMS detection of single molecules without breakdown products).

Data set [2] can be described thus: LCMS drug levels in porcine serum from the internal jugular vein. It is filed as in vivo, pig. The following applies: released from implanted device; 0, 1, 2, 4, 24, 48, 72, 120, 240, 336 hrs; FIGS. 14 and 15. From the text:
(§1) Devices produced in accordance with the methods of EXAMPLE 1 were implanted into tonsillectomized pigs.
(§2) The specific LCMS method used for detection of Bupivacaine and Lidocaine has been validated in work by Hoizey et al (2005) (Hoizey G, et al. Sensitive bioassay of bupivacaine in human plasma by liquid-chromatography-ion trap mass spectrometry. Journal of pharmaceutical and biomedical analysis. 2005; 39:587-92).
(§3) The specific LCMS method used for detection of Bupivacaine and Lidocaine has been validated in work by Hoizey et al (2005).

Data set [3] can be described thus: LCMS drug levels in porcine lymph tissue from the anterior jugular chain. It is filed as in vivo, pig. The following applies: released from implanted device; necropsy at 0, 48, 120, 240 and 336 hrs; FIGS. 12 and 13.
Source text: as §1, §2, §3

The structures appear in SMILES notation. “Also recorded” adds a separate entry of the source.

The values below come from patent US20230061352A1, “DRUG DELIVERY DEVICE” (priority 2020, published 2023).

As for `CCCCN1CCCCC1C(=O)Nc1c(C)cccc1C` (centres unmarked) [bupivacaine], in data set [1], the “integrity of the released drug molecule (no breakdown products)” value was “active form is preserved; also recorded: complete, intact bupivacaine molecule”. Moreover, in data set [2], the “drug level detected in serum (systemic uptake)” value is reported as less than 4 microgram per ml. Also, the “drug level detected in locoregional (lymph) tissue” value in data set [3] was less than 4 microgram per ml.
Regarding `CCN(CC)CC(=O)Nc1c(C)cccc1C` [lignocaine], the “integrity of the released drug molecule (no breakdown products)” value in data set [1] was “active form is preserved; also recorded: complete, intact lignocaine molecule”. Moreover, in data set [3], the “drug level detected in locoregional (lymph) tissue” value is on record as less than 5.6 microgram per ml.
